{"source": "patent US7456294B2", "about": "“Hairpin polyamide” (Japan Science and Technology Agency, priority 2002, dated 2008)", "key": {"[1]": {"system": "39 human cultured cancer cell lines", "experiment": "Cytostatic activity on 39 human cultured cancer cell lines", "assay_type": "cell-based", "set-up": "mean IC50 values: scale not given here", "settings": "for mean IC50 values: mean over 39 human cancer cell lines", "text": "The first is the proportional relationship between the DNA-alkylating ability and the cytostatic activity (FIG. 8). For example, the mean IC50 values of ImPyDu (−4.59), ImPyDu86 (−5.95) and ImPyLDu86 (−8.25) were reduced gradually as the DNA-alkylating ability was increased.\nA further interesting result was obtained when comparing the fingerprint patterns indicating the cytostatic activity of the hairpin sequence-specific alkylating agents ImPyPy-γ-ImPyLDu 36 (13) and ImPyPy-γ-ImPyPyLDu 36 (14) (FIG. 9). In general, a high correlation coefficient (r=0.75 to 1.0) is known to be obtained when comparing the fingerprint patterns between the drugs whose action mechanisms are analogous to each other, and in fact an extremely high analogy was observed among a DNA intercalator, doxorubicin, daunorubicin and epirubicin. […] The influence on the cytostatic activity attributable only to the difference in the base sequence-recognizing ability in spite of the analogy in the structure as observed with these Compound 13 and 14 has never been reported, and thus is one of the most important findings."}, "[2]": {"system": "DNA sequence PyG(A/T) CPu", "settings": "cited from earlier work"}, "long chain DNA (pUC-II)": {"system": "long chain DNA (pUC-II)", "experiment": "Long chain DNA (pUC-II) alkylation, 24 hours, sequence gel electrophoresis", "assay_type": "biochemical", "settings": "nM concentrations, 23° C.", "description": "For the purpose of comparing the hairpin polyamides 14, 15 and 16, the DNA alkylation reaction employing a long chain DNA (pUC-II) was conducted.\nWith this regard, the inventors considered that this problem can be solved by replacing the Du86 with CBI: 1,2,9,9a-tetrahydrocyclopropa[c]benz[e]indole-4-one (22), the method for synthesizing which had already been reported by Boger et al. (J. Org. Chem. 1992, 57, 2873; J. Org. Chem. 1995, 60, 1271 and the like). The benefit of using CBI includes the ability of using commercially available 1,3-dihydroxynaphthalene as a starting material and the ability of providing both enantiomers by an optical resolution. Accordingly, the inventors newly synthesized Compound 23 by replacing the Du86 part of Compound 16 with CBI. Then the inventors evaluated the DNA-alkylating ability using a long chain DNA (pUC-II).\nA DNA fragment (pUC-II) was synthesized by a PCR method using pUC 18 as a template together with a 5′-texas red-labeled 21 base pair primer: 5′-[…]-3′ (pUC 18 reverse, 1861-1881) and 18 base pair primer: 5′-TGTAAAACGACGGCCAGT-3′ (pUC18 forward, 378-395). The resultant DNA fragments were purified by filtration through a Suprec-02, and then examined for the UV absorption to determine the respective concentrations.\n(§1) To 10 μl in total of 5 mM sodium phosphate buffer (pH7.0), a standard reaction solution containing 10 nM of the DNA fragment (pUC-II) whose 5′-terminal had been labeled with the texas red, 10% (v/v) DMF and an agent at the concentration indicated in FIG. 4 was added in a microcentrifugation tube (Eppendorf) and allowed to stand for 24 hours at 23° C.\nA bovine thymus DNA (1 mM, 1 μL) was added for quenching, and the mixture was shaken for 5 minutes at 90° C. The DNA obtained by centrifugation under reduced pressure was combined with 8 μl of a loading color (solution of *FUGENE* Red in DMF) and dissolved, and then shaken for 20 minutes at 94° C. […]"}, "[3]": {"system": "DNA fragment of 450 base pairs", "settings": "450 base pair DNA fragment; cited from earlier work"}, "DNA fragment (pUC-I′)": {"system": "DNA fragment (pUC-I′)", "experiment": "Alkylation of pUC-I′ DNA within a short period (5 minutes, 1 hour, 2 hours), gel electrophoresis", "assay_type": "biochemical", "description": "In order to investigate the difference in the reactivity between Compounds 1 and 13 in more detail, the alkylation within a short period was analyzed.\nas §1, with “(pUC-I′)” for “(pUC-II)”, “2” for “4”, “5 minutes, 1 hour and 2 hours, respectively” for “24 hours”\n(§2) After each reaction time, a bovine thymus DNA (1 mM, 1 μL) was added for quenching, and the mixture was shaken for 5 minutes at 90° C. The DNA obtained by centrifugation under reduced pressure was combined with 8 μl of a loading color (solution of *FUGENE* Red in DMF) and dissolved, and then shaken for 20 minutes at 94° C. Immediately after this, the mixture was cooled rapidly to 0° C., and a 2 μl aliquot was subjected to an electrophoresis on a 6% denature polyacrylamide gel using a HITACHI 5500-S DNA sequencer system."}, "long chain DNA (pUC-I′)": {"system": "long chain DNA (pUC-I′)", "experiment": "Long chain DNA (pUC-I′) alkylation, 24 hours, sequence gel electrophoresis", "assay_type": "biochemical", "settings": "for sequence-specific alkylation of long chain DNA: 100 nM to 12.5 nM, 23° C.", "description": "The reaction of the hairpin polyamides 1 and 12 to 14 with a DNA was investigated using a long chain DNA (pUC-I′). The alkylation reaction was continued for 24 hours and a sequence gel electrophoresis was conducted for the analysis.\nOn the other hand, the alkylation of ImPyPy-γ-ImPyPyDu86 (12) was not observed at 100 nM to 12.5 nM (lanes 5 to 8). […] In the description made above or below, a -γ- means a γ-aminobutyric acid residue.\nA DNA fragment (pUC-I′) was synthesized by a PCR method using pUC 18 as a template together with a 5′-texas red-labeled 20 base pair primer: 5′-[…]-3′ (pUC 18 forward, 780-799) and 20 base pair primer: 5′-[…]-3′ (pUC18 reverse, 1459-1478). The resultant DNA fragments were purified by filtration through a Suprec-02, and then examined for the UV absorption to determine the respective concentrations.\nas §1, with “fragment (pUC-I′)” for “fragment (pUC-II)”, “FIG. 1” for “FIG. 4”\nas §2, with “A” for “After each reaction time, a”"}, "[4]": {"system": "GFP protein expression coding region", "experiment": "Inhibition of mRNA transcription in GFP coding region with T7 promoter and T7 polymerase", "assay_type": "biochemical", "settings": "early stage experiment", "text": "The condition of the experiment has not been established yet, and a further detailed analysis of the transcription inhibition mechanism is required. […] It leads to a breakthrough toward the development of a novel knockout gene method."}, "[5]": {"system": "DNA oligomers 5′-CAAGTCAGAG/5′-CTCTGACTTG", "experiment": "Short chain DNA (10 bp) alkylation followed by HPLC", "assay_type": "biochemical", "settings": "for alkylation of DNA oligomer: 150 μM agent and DNA, 23° C.", "text": "In order to clarify the reactive base site in an alkylation site, the alkylation with Polyamides 12, 13 and 14 was investigated by an HPLC using DNA oligomers 5′-CAAGTCAGAG/5′-CTCTGACTTG as substrates. […] Also by decomposing the oligomers by heating and investigating the degradation products of the oligomers by the method which the inventors reported previously (Tetrahedron Lett. 1990, 31, 7197; Tetrahedron Lett. 1993, 34, 2179 and the like), it was proven that the alkylation reaction occurred at the site indicated by an arrow. […] These findings may be attributable to the difference in the reactivity between the Du and the Du86 similarly to the reactivity on the long chain DNA.\nA DNA oligomer synthesized by a DNA synthesizer was employed. To 50 μl in total of 50 mM sodium cacodylate buffer (pH7.0), a standard reaction solution containing 150 μM of the double-stranded DNA fragment, 10% (v/v) DMF and each agent of Compounds 1, 12, 13 and 14 (150 μM) was added in a microcentrifugation tube (Eppendorf) and allowed to stand at 23° C.\nThe advancement of the reaction was ensured by an HPLC using a *CHEMCOBOND* 5-ODS-H column (4.6×150 mm). The HPLC conditions are shown below.\n[Linear gradient of 50 mM ammonium formate: 0-50% acetonitrile (0 to 40 min), flow rate: 1.0 mL/min, 254 nm]."}}, "note": "“Also recorded” adds a separate entry of the source.", "data": [{"compound": "ImPyLDu86", "values": [{"measurement": "mean IC50 values", "setting": "[1]", "value": "−8.25"}, {"measurement": "alkylation induced, share of the compound employed", "setting": "[2]", "value": 70, "unit": "%"}]}, {"compound": "AcImImPyPy-γ-ImPyPyLDu86 [Compound 15]", "values": [{"measurement": "sequence-specific alkylation of pUC-II DNA", "setting": "long chain DNA (pUC-II)", "value": "sequence-specific alkylation was observed at 5′-TGACCA-3′"}]}, {"compound": "COC(=O)[C@]1(C)NC2=C(C1=O)[C@@]13C[C@@H]1CN(C(=O)c1cc(NC(=O)c4cc(NC(=O)c5nc(NC(=O)CCCNC(=O)c6cc(NC(=O)c7cc(NC(=O)c8nc(NC(C)=O)cn8C)cn7C)cn6C)cn5C)cn4C)cn1C)C3=CC2=O", "note": "[Compound 1, ImPyPy-γ-ImPyPyDu]", "values": [{"measurement": "reaction efficiency of sequence-specific DNA alkylation", "setting": "[3]", "value": 7, "unit": "%"}, {"measurement": "time for sequence-specific alkylation of DNA to complete", "setting": "[3]", "value": "≥ 1", "unit": "week"}, {"measurement": "alkylation after short reaction time", "setting": "DNA fragment (pUC-I′); one hour", "value": "no reaction"}, {"measurement": "sequence-specific alkylation of long chain DNA", "setting": "long chain DNA (pUC-I′); 24 hours", "value": "reacted selectively at G in the 5′-GTCAG-3′ sequence in Site 3"}]}, {"compound": "PyPyPyLDu86", "values": [{"measurement": "change of cytostatic activity due to the vinyl linker between polyamide and Du86", "setting": "[1]", "value": "dramatic increase in the cytostatic activity"}]}, {"compound": "COC(=O)C1=C(C)CC2=C1[C@@]13C[C@@H]1CN(C(=O)/C=C/c1cc(NC(=O)c4nc(NC(=O)CCCNC(=O)c5cc(NC(=O)c6cc(NC(=O)c7nc(NC(C)=O)cn7C)cn6C)cn5C)cn4C)cn1C)C3=CC2=O", "note": "[Compound 13, AcImPyPy-γ-ImPyLCPI]", "values": [{"measurement": "mRNA produced by transcription inhibition due to alkylation of the adenine in the 387 nt position", "setting": "[4]", "value": "observed successfully"}, {"measurement": "reactivity on the DNA oligomers compared with other compounds", "setting": "[5]", "value": "dramatically increased reactivity"}, {"measurement": "alkylation of DNA oligomer", "setting": "[5]; after 5 minutes", "value": 75, "unit": "%"}, {"measurement": "alkylation after short reaction time", "setting": "DNA fragment (pUC-I′); 5 minutes", "value": "caused the alkylation"}, {"measurement": "consumption of starting DNA", "setting": "long chain DNA (pUC-I′); 100 nM (lane 9), 24 hours", "value": "disappearance of almost all starting DNA"}, {"measurement": "sequence-specific alkylation of long chain DNA", "setting": "long chain DNA (pUC-I′); 24 hours", "value": "reacted at A in the GTCAG sequence of the site 3"}]}, {"compound": "COC(=O)c1c(C)[nH]c2c1[C@@]13C[C@@H]1CN(C(=O)/C=C/c1cc(NC(=O)c4cc(NC(=O)c5nc(NC(=O)CCNC(=O)c6cc(NC(=O)c7cc(NC(=O)c8nc(NC(=O)c9nccn9C)cn8C)cn7C)cn6C)cn5C)cn4C)cn1C)C3=CC2=O", "note": "[Compound 16, H-ImImPyPy-γ-ImPyPyLCPI]", "values": [{"measurement": "sequence-specific alkylation of pUC-II DNA", "setting": "long chain DNA (pUC-II)", "value": "sequence-specific alkylation was observed at 5′-TGACCA-3′"}]}, {"compound": "ImPyPyLDu86", "values": [{"measurement": "change of cytostatic activity due to the vinyl linker between polyamide and Du86", "setting": "[1]", "value": "dramatic increase in the cytostatic activity"}]}, {"compound": "COC(=O)c1c(C)[nH]c2c1[C@@]13C[C@@H]1CN(C(=O)/C=C/c1cc(NC(=O)c4cc(NC(=O)c5nc(NC(=O)CCCNC(=O)c6cc(NC(=O)c7cc(NC(=O)c8nc(NC(C)=O)cn8C)cn7C)cn6C)cn5C)cn4C)cn1C)C3=CC2=O", "note": "[Compound 14, AcImPyPy-γ-ImPyPyLCPI]", "values": [{"measurement": "reactivity on the DNA oligomers compared with other compounds", "setting": "[5]", "value": "almost equivalent to Compound 1 and poorer than Compound 13"}, {"measurement": "alkylation of DNA oligomer", "setting": "[5]; after 2 hours", "value": 46, "unit": "%"}, {"measurement": "sequence-specific alkylation of pUC-II DNA", "setting": "long chain DNA (pUC-II)", "value": "sequence-specific alkylation was observed at 5′-TGACCA-3′; also recorded: reactivity is far lower than those of Compounds 15 and 16"}, {"measurement": "sequence-specific alkylation of long chain DNA", "setting": "long chain DNA (pUC-I′); 24 hours", "value": "slightly reduced reactivity when compared with Compound 13"}]}, {"compound": "AcImPyPy-γ-ImPyPyCPI [Compound 12]", "values": [{"measurement": "reactivity on the DNA oligomers compared with other compounds", "setting": "[5]", "value": "extremely poorer when compared with Compound 1"}, {"measurement": "alkylation of DNA oligomer", "setting": "[5]; after 17 hours", "value": 13, "unit": "%"}, {"measurement": "sequence-specific alkylation of long chain DNA", "setting": "long chain DNA (pUC-I′); 24 hours", "value": "not observed"}, {"measurement": "alkylation of long chain DNA at elevated concentration", "setting": "long chain DNA (pUC-I′); 10 μM", "value": "no occurrence of the alkylation"}]}, {"compound": "PyPyLDu86", "values": [{"measurement": "change of cytostatic activity due to the vinyl linker between polyamide and Du86", "setting": "[1]", "value": "dramatic increase in the cytostatic activity"}]}, {"compound": "ImPyDu", "values": [{"measurement": "mean IC50 values", "setting": "[1]", "value": "−4.59"}]}, {"compound": "ImPyDu86", "values": [{"measurement": "mean IC50 values", "setting": "[1]", "value": "−5.95"}]}]}
